# Assays:
# Leishmania tropica [1] = test: Antileishmanial activity against Leishmania tropica MHOM/A7/1974/SAF-K27 incubated for 48 hrs by Neubauer hemocytometer analysis; type: functional, organism-based; conditions: MHOM/A7/1974/SAF-K27, 48 h
# Leishmania infantum [2] = test: Antileishmanial activity against Leishmania infantum MHOM/TN/1980/IPT1 incubated for 48 hrs by Neubauer hemocytometer analysis; type: functional, organism-based; conditions: MHOM/TN/1980/IPT1, 48 h
# Leishmania tropica [3] = test: Antileishmanial activity against Leishmania tropica MHOM/A7/1974/SAF-K27 incubated for 48 hrs by XTT method; type: functional, organism-based; conditions: MHOM/A7/1974/SAF-K27, 48 h
# Leishmania infantum [4] = test: Antileishmanial activity against Leishmania infantum MHOM/TN/1980/IPT1 incubated for 48 hrs by XTT method; type: functional, organism-based; conditions: MHOM/TN/1980/IPT1, 48 h
# Pteridine reductase 1 = biological target: T1, Pteridine reductase 1 (Leishmania major, UniProt Q01782); test: Inhibition of recombinant Leishmania major PTR1 expressed in Escherichia coli BL21 using folic acid as substrate in presence of NADPH
# T1 sequence (Q01782 whole entry): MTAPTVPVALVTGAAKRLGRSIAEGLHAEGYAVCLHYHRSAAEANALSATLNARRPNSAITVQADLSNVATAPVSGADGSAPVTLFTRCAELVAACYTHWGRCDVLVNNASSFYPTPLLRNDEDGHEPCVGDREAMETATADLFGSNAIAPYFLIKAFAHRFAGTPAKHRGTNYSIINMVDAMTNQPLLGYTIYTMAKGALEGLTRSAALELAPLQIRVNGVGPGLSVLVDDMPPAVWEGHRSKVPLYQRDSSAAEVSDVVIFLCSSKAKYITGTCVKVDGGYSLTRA
# Dihydrofolate reductase = biological target: T2, Dihydrofolate reductase (Homo sapiens, UniProt P00374); test: Inhibition of human DHFR using dihydrofolate as substrate in presence of NADPH; type: toxicity
# T2 sequence (P00374 whole entry): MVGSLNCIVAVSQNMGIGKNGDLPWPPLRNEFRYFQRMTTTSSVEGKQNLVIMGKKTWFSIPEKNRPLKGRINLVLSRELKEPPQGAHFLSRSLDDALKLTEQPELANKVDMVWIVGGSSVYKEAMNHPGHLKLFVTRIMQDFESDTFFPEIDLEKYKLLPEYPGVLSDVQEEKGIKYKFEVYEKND
# [5] = test system: DHFR (human) versus PTR1 (Leishmania major); test: Selectivity index, ratio of IC50 for human DHFR to IC50 for Leishmania major PTR1; type: toxicity; conditions: human DHFR enzyme and Leishmania major PTR1 enzyme, read-out: Ratio IC50
# [6] = (§1) Cytotoxicity against mouse L929 cells by alamar blue method; type: toxicity, cell-based; conditions: mouse, L929 cells
# L929 = test: as §1; type: toxicity, cell-based; conditions: l929
# [7] = (§2) Cytotoxicity against mouse RAW264.7 cells by alamar blue method; type: toxicity, cell-based; conditions: mouse, RAW264.7 cells
# RAW264.7 = test: as §2; type: toxicity, cell-based; conditions: raw264.7
structure (smiles),measurement,setting,value
CN1CCN(c2ncc3nc(NC(=O)c4ccc(Cl)cc4)sc3n2)CC1,IC50,Leishmania tropica [1],15.6 µg/mL
same,IC50,Leishmania infantum [2],15.7 µg/mL
same,IC50,Leishmania tropica [3],15.3 µg/mL
same,IC50,Leishmania infantum [4],15.4 µg/mL
same,IC50,Pteridine reductase 1,28.4 µM
same,IC50,Dihydrofolate reductase,271 µM
same,selectivity ratio,[5],9.54
same,IC50,[6],25.7 µg/mL
same,log10 IC50 (µg/mL),L929,1.41
same,IC50,[7],14.1 µg/mL
same,log10 IC50 (µg/mL),RAW264.7,1.15

# From ChEMBL document CHEMBL5352486, “Design, synthesis, in vitro - In vivo biological evaluation of novel thiazolopyrimidine compounds as antileishmanial agent with PTR1 inhibition” (Eur J Med Chem, 2023)
